Laboratory results as given in patent US6660804B1, “Cyclodextrin polymers and/or cyclodextrin derivatives with complexing properties and ion-exchange properties and method for the production thereof” (Universite des Sciences et Technologies de Lille, priority 1999, dated 2003).

Tests used:
[1] = Diffusion of CI Basic Red 22 through 12000-14000 d dialysis membrane (complexing); type: physicochemical; details: 50 ml 10^-4 M dye plus 0.2837 g additive inside membrane, 250 ml distilled water outside, after 5 hours of dialysis; dye alone 0.2722
Procedure: Three solutions of 50 ml of 10^−4 M CI Basic Red 22 basic dye were introduced into 12000-14000 d dialysis membranes. The first fraction contained the dye alone; the second contained the dye and 0.2837 g of β cyclodextrin (i.e., 5×10^−3 mol/l); the third contained the dye and 0.2837 g of soluble cyclodextrin copolymer obtained using the method described in Example 1. The three membranes with the three different dye solutions were each immersed in 250 ml of distilled water. Diffusion of the dye from the interior of the membrane into the distilled water surrounding the membrane was monitored by determining the absorbance of the external solution at 540 nanometers (nm). The absorbance values obtained for the external solutions for the three fractions after 5 hours of dialysis were 0.2722 for the first fraction, 0.1873 for the second fraction and only 0.0237 for the third fraction.

[2] = Diffusion of 2-naphthol through 12000-14000 d dialysis membrane (complexing); type: physicochemical; details: 50 ml 10^-3 M 2-naphthol plus 0.2837 g β cyclodextrin or 0.3317 g copolymer inside membrane, 250 ml distilled water outside, after 76 hours of dialysis; 2-naphthol alone 0.2865
Procedure: Three solutions of 50 ml of 10−3 M 2-naphthol were introduced into 12000-14000 d dialysis membranes. The first fraction contained 2-naphthol alone; the second contained the dye and 0.2837 g of β cyclodextrin (i.e., 5×10^−3 mol/l); the third contained the dye and 0.3317 g of the soluble cyclodextrin copolymer obtained using the method described in Example 1. The three membranes with the three different dye solutions were each immersed in 250 ml of distilled water. Diffusion of the dye from the interior of the membrane into the distilled water surrounding the membrane was monitored by determining the absorbance of the external solution at 327 nm. The absorbance values obtained for the external solutions for the three fractions after 76 hours of dialysis were 0.2865 for the first fraction, 0.3030 for the second fraction and only 0.2574 for the third fraction.

SMILES: OC[C@H]1O[C@@H]2O[C@H]3[C@H](O)[C@@H](O)[C@@H](O[C@H]4[C@H](O)[C@@H](O)[C@@H](O[C@H]5[C@H](O)[C@@H](O)[C@@H](O[C@H]6[C@H](O)[C@@H](O)[C@@H](O[C@H]7[C@H](O)[C@@H](O)[C@@H](O[C@H]8[C@H](O)[C@@H](O)[C@@H](O[C@H]1[C@H](O)[C@H]2O)O[C@@H]8CO)O[C@@H]7CO)O[C@@H]6CO)O[C@@H]5CO)O[C@@H]4CO)O[C@@H]3CO [β cyclodextrin]
- absorbance of the external solution at 540 nm [1]: 0.1873
- absorbance of the external solution at 327 nm [2]: 0.3030
